{
  "source": "paper PMC12851007",
  "about": "(Angewandte Chemie (International Ed. in English), 2025)",
  "key": {"[1]": {"experiment": "Dual-channel assay, CX4/LCG channel, POPC/POPS vesicles", "type": "in vitro ADME", "conditions": "12.5 µM POPC/POPS(9:1)⸧CX4/LCG-LUVs and 12.5 µM POPC/POPS(9:1)⸧CF-LUVs in 10 mM Hepes, 175 mM glucose, pH 7.5; error = SD of fit, n = 1", "source_text": "Ultimately, we have also tested the new conditions with vesicles containing the anionic lipid 1‐palmitoyl‐2‐oleoyl‐phosphatidylserine (POPS) with TP10, Pep‐1, and the LRLLRW peptide (Figures S41–S43 and Table S11). The results confirmed that the absolute activity as well as the difference between the CF dye efflux assay and the tandem membrane assay was nearly unaffected by the presence of 10% POPS with the only exception that the membrane‐translocating ability of TP10 was enhanced.\nAssay protocol. An appropriate volume of the liposome stock solutions was diluted to 2 mL with outside buffer in a 10 ×10 mm quartz glass cuvette to afford a phospholipid concentration of 25 µM. The cuvette was placed into a thermostatted fluorimeter sample holder and gentl y stirred at 300 rpm at (25.0± 0.1) °C. Subsequentl y, the time-dependent change in fluorescence intensity (C F: λ exc = 492 nm, λ em = 517 nm) was recorded during addition of 20 µL peptide stock solution of var ying concentrations at 60 s and 20µ L of a calibration cocktail (1. 6% […]\nTime-dep endent fluores cence intensit y traces, I (t), were subsequentl y normalized to fractional intensities, If(t), using equation (1) and the concentration- dependent fractional intensities just before the addition of th e calibration co cktail, I f, w ere then normaliz ed to fr actional membran e activities, Y, using equation (2). The fractional membrane activities, Y, were subsequently plotted against the peptide concentration, c, and anal ysed using the Hill equation (3) to obtain the effective molar concentration, EC 50, and the Hill coefficient, n. For peptides with too low activity to determine Y max ex perimentall y, Y max was fixed at 1.0 during fitting. […]\nDual-Channel Measurements\nVesicles w ere prep ared a s described abov e (se e en try (4) in Table S2 and entry (3) in Table S3) and eluted with freshl y prepared 10 mM Hepes, 175mM glucos e, pH 7.5 i n the size exclusion chromatograph y. For the measurements, an approp riate volume o f the liposome stock solutions was diluted to 2m L in a 10× 10 mm PS cuvette wi th 10 mM Hep es bu ffer and 175 mM glucos e at pH 7.5 to afford 12.5µM POPC ⊃CX4/LCG-LUVs and 12.5 µM POPC⊃CF-LUVs (25 µM POPC total). The cuvette was placed into a thermostatted fluorimeter sample holder at 25.0 °C and gentl y stirred at 300 rpm. The fluorescence intensity w as simultaneous l y r eco rded in the CF chann el ( λ exc = 525 nm, λ em = 545 nm) and in the LCG channel ( λ exc = 369 nm, λ em = 475 nm) with an ex citation slit width of 5 nm and an emission slit width of 5 n m during addition of 20 µL peptide stock solution of varying concentrations at 60 s and 20 µL of a calibration"}, "[2]": {"type": "binding", "conditions": "LCG displacement in 10 mM Hepes, pH 7.0, 25 °C; fluorescence; error = SD of nonlinear fit, n = 1", "procedure": "Fluorescence titrations were performed as previously described and the resulting titration curves we re an al yz ed usi ng established pro cedur es . Competitive titrations were eithe r anal yz ed with a fitting function assuming 1:1 host-competitor complexes[3] or with a fitting function involving hi gher complex es with more than on e h ost bound per peptide.[4] In the latter c ase, an identical binding affinity is assumed for all binding sites. […]\nFigure S1. a) Fluorescence titration of 0.5 µM LCG ( λex = 369 n m) with varying concentrations of CX4 in 10 mM Hepes, pH 7.0, 25 °C .b) Respective titration curve ( λem = 502 nm) with fitted line . […]\nFigure S2. a) Competitive fluorescence titration wit h 0.5 µM LCG, 1 µM CX4 ( λex = 369 nm) and varying concentrations of penetratin in 10 mM Hepes, pH 7.0, 25 °C . b) Respective titration c ur ve (λem = 502 nm) with fitted line .\n(also on this page, place not known: analyzed using procedures. were either analyzed host -competitor higher complexes one host case, 700 Intensity Intensity (λex °C. line. 650 0 Intensity 0 Intensity b) curve (λem nm) with line.)"}},
  "note": "Where a SMILES comes first, the peptide text is derived from it.",
  "data": [
    {"smiles": "CC[C@H](C)[C@H](NC(=O)[C@H](CCCCN)NC(=O)[C@H](CCCCN)NC(=O)[C@H](C)NC(=O)[C@H](CC(C)C)NC(=O)[C@H](C)NC(=O)[C@H](C)NC(=O)[C@H](CC(C)C)NC(=O)[C@H](C)NC(=O)[C@H](CCCCN)NC(=O)[C@H](CC(C)C)NC(=O)[C@H](CC(N)=O)NC(=O)[C@@H](NC(=O)[C@H](CCCCN)NC(=O)CNC(=O)[C@H](CC(C)C)NC(=O)[C@H](CC(C)C)NC(=O)[C@H](Cc1ccc(O)cc1)NC(=O)CNC(=O)[C@H](C)N)[C@@H](C)CC)C(=O)N[C@@H](CC(C)C)C(=O)O", "note": "[TP10]", "values": [
      {"measurement": "EC50", "setting": "[1]", "value": "0.076 ± 0.01", "unit": "µM"},
      {"measurement": "EC50, dual-channel assay, CX4/LCG channel, POPC/POPS", "setting": "[1]", "value": "enhanced"}
    ]},
    {"smiles": "CC[C@H](C)[C@H](NC(=O)[C@H](CCCCN)NC(=O)[C@@H](NC(=O)[C@@H](N)CCC(N)=O)[C@@H](C)CC)C(=O)N[C@@H](Cc1c[nH]c2ccccc12)C(=O)N[C@@H](Cc1ccccc1)C(=O)N[C@@H](CCC(N)=O)C(=O)N[C@@H](CC(N)=O)C(=O)N[C@@H](CCCNC(=N)N)C(=O)N[C@@H](CCCNC(=N)N)C(=O)N[C@@H](CCSC)C(=O)N[C@@H](CCCCN)C(=O)N[C@@H](Cc1c[nH]c2ccccc12)C(=O)N[C@@H](CCCCN)C(=O)N[C@@H](CCCCN)C(=O)O", "note": "(H-QIKIWFQNRRMKWKK-OH)", "values": [
      {"measurement": "K a, binding constant of peptide to CX4", "setting": "[2]", "value": "(9.9 ± 1.8) × 10^7 M^−1"}
    ]},
    {"smiles": "CC(C)C[C@H](NC(=O)[C@H](CC(C)C)NC(=O)[C@H](CCCNC(=N)N)NC(=O)[C@@H](N)CC(C)C)C(=O)N[C@@H](CCCNC(=N)N)C(=O)N[C@@H](Cc1c[nH]c2ccccc12)C(N)=O", "note": "[LRLLRW] (H-LRLLRW-NH2)", "values": [
      {"measurement": "K a, binding constant of peptide to CX4", "setting": "[2]", "value": "(1.3 ± 0.1) × 10^6 M^−1"},
      {"measurement": "EC50", "setting": "[1]", "value": "9 ± 1.6", "unit": "µM"}
    ]},
    {"smiles": "CC(C)[C@H](NC(=O)[C@H](CCCCN)NC(=O)[C@H](CCCNC(=N)N)NC(=O)[C@H](CCCCN)NC(=O)[C@H](CCCCN)NC(=O)[C@H](CCCCN)NC(=O)[C@@H]1CCCN1C(=O)[C@H](CCC(N)=O)NC(=O)[C@H](CO)NC(=O)[C@H](Cc1c[nH]c2ccccc12)NC(=O)[C@H](CC(=O)O)NC(=O)[C@@H](NC(=O)[C@H](Cc1c[nH]c2ccccc12)NC(=O)[C@H](Cc1c[nH]c2ccccc12)NC(=O)[C@@H](NC(=O)[C@H](CC(=O)O)NC(=O)[C@H](Cc1c[nH]c2ccccc12)NC(=O)[C@H](Cc1c[nH]c2ccccc12)NC(=O)[C@@H](NC(=O)[C@H](CC(=O)O)NC(=O)[C@@H](N)CCCCN)[C@@H](C)O)[C@@H](C)O)[C@@H](C)O)C(=O)O", "note": "[Pep‐1] (H-KDTWWDTWWTDWSQPKKKRKV-OH)", "values": [
      {"measurement": "K a, binding constant of peptide to CX4", "setting": "[2]", "value": "(2.8 ± 0.2) × 10^6 M^−1"},
      {"measurement": "EC50", "setting": "[1]", "value": "5.3 ± 0.66", "unit": "µM"}
    ]}
  ]
}
